# According to article PMC11725581, “Developing novel Lin28 inhibitors by computer aided drug design” (Cell Death Discovery, 2025):
# pIC50: −log10 of the molar value. “Also recorded” adds a separate entry of the source.
# Experiments:
# ANA3CA cells = assay: Cell proliferation (Incucyte), ANA3CA; type: cell-based; settings: Lin28a/Lin28b-positive
# Description: (§1) To further evaluate whether the suppressive effects of Ln268 are specific to Lin28-positive cancer cells, we compared cell growth rates of DuNE (Lin28b-positive line) and Du145 (Lin28b-negative line), both of which are Lin28a-negative. DuNE has the same genomic background with Du145 except for the transduction of the SRRM4 gene. […] Furthermore, Ln268 had no impact on the cell growth of DuNE(KO) cells, in which the Lin28b gene was knocked out by CRISPR (Fig. 5C). […] We also tested several ovarian and endometrial cancer cell lines with different Lin28a and Lin28b expression profiles (Fig. 5E).
# [1] = test system: Lin28a-positive IGROV-1 cells; assay: Cell proliferation (Incucyte), IGROV-1 cells; type: cell-based
# HEC1B cells = assay: Cell proliferation (Incucyte), HEC1B; type: cell-based; settings: Lin28a/Lin28b-negative
# Description: as §1
# Lin28b ZKD = target: T1, Lin28b ZKD (Homo sapiens, UniProt Q6ZN17); assay: EMSA, Lin28b ZKD:pre-let-7d complex formation; type: binding; settings: 1 μM Lin28 ZKD, 10 nM IRDye800-labeled pre-let-7d probe
# T1 sequence (Q6ZN17 127-166 limits assumed): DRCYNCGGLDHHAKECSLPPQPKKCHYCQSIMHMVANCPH
# Protocol: We next validated the newly developed compounds using EMSA, a non-florescent-based assay to detect Lin28b ZKD:pre-let-7 complex formation. Similar to the FP assays, we first optimized the experimental conditions by titrating: (1) IRDye800-labeled pre-let-7d RNA probe, (2) Lin28b ZKD protein, and (3) non-labeled pre-let-7 probe as a competitor (Fig. 2C). For the validation experiments, 1 μM Lin28 ZKD and 10 nM of IRDye800-labeled pre-let-7d probe were mixed with each candidate compound. Compounds C1632 and Ln15 were used as control Lin28 inhibitors, respectively. […] Regardless, we use these two biochemical assays to shortlist the most promising compounds for further characterization. […] While our inhibitors directly target the Lin28 ZKD, it is unclear whether C1632 may bind to domains other than the ZKD or allosterically disrupt Lin28’s capacity to bind its RNA substrates.
# EMSA followed the standard protocols we published. An IRDye800CWN-labeled pre-Let-7d RNA probe (5’-IRD800CWN-[…]-3’) was purchased from IDT (Coralville, IA, USA). Lin28a or Lin28b proteins were incubated with 300 nM of probe in a standard 20 uL EMSA reaction in a reaction buffer containing 20 mM HEPES-NaOH, pH 7.4, 2 mM DTT, 3 mM MgCl2, 0.05% NP-40, protease inhibitors, and 0.1 ug poly[dI:dC]. After incubation for 30 min at 37 °C, reactions were loaded onto 4% non-denatured polyacrylamide gel in 0.5× TBE buffer. The RNA oligo bands were visualized by using the Li-Cor Odyssey 9120 Infrared Imaging System.
# [2] = test system: Lin28b protein expression in DuNE cells; assay: Lin28b protein levels by immunoblotting in DuNE cells; type: cell-based; settings: 20uM, 72 h
# Protocol: We further tested whether the 13 candidate compounds could penetrate the cell membrane, endure cell-mediated metabolism and excretion, and inhibit Lin28 activities inside cancer cells. […] Since let-7 and Lin28b mutually regulate each other’s expression, increased let-7 expression by Lin28 inhibitors would suppress Lin28b protein levels.
# Fig. 3 Validate CADD predicted compounds by cell-based assays. A, B DuNE cells were treated with Lin28b inhibitors for 72 h. Let-7d RNA levels were measured by real-time qPCR (A) and Lin28b protein levels were measured by immunoblotting (B). […] Cell proliferation rates were measured by Incucyte. D Overlay of 1H-15N HSQC spectra for Lin28b-ZKD (black), Lin28b-ZKD + Ln15 (orange), and Lin28b-ZKD + Ln268 (blue). Ligands were added in a 20:1 molar ratio. Approximately 20 residues are seen to shift (from black to orange/blue), with ca. 5 resonances disappearing for Lin28b-ZKD in the presence of Ln268. E Overlay of the 20 NMR models for 2CQF (gray) and 2LI8 (blue) showing the rearrangement of residues 137–160 in going from Lin28b-ZKD alone to the conformation with RNA present. The conformation of Lin28b-ZKD in the presence of the ligands described herein might resemble that of 2LI8, but with a larger conformational spread. All results are presented as the mean ± SD.
# Total RNA was extracted by TRIZOL reagent (Invitrogen), treated with deoxyribonuclease and reversely transcribed by random hexamers and superscript II (Invitrogen). Real-time qPCR was performed on the ABI PRISM 7900 HT system (Applied Biosystems) using the FastStart Universal SYBR Green Master mix (Roche) following standard protocol as we reported. All real-time qPCR assays were carried out in triplicates from three independent cDNA syntheses. For immunoblotting assays, whole cell lysis was extracted by a buffer containing 50mM of Tris pH8.0, 150mM of NaCl, 1% NP40, 0.5% sodium deoxycholate, 0.1% SDS and proteinase and phosphatase inhibitors (Roche). Protein lysis separated by SDS-PAGE, transferred to polyvinylidene difluoride membrane, and blotted by specific antibodies.
# DuNE spheroids = assay: DuNE 3D spheroid growth (Incucyte); type: cell-based
# Description: CSCs have characteristic tumorigenic, self-renewal, and differentiation properties. The self-renewal ability is hijacked by CSCs that makes them both tumorigenic and capable of sustaining long-term tumor growth, which can be evaluated by 3D spheroid and colony formation assays. We established a DuNE spheroid model in which DuNE cells formed 3D spheroids in 96-well plates (Figure S3). By integrating this 3D culture with the Incucyte live-cell imaging system, we quantified the sizes of the spheroid growth over 0–6 days to generate a spheroid growth curve. Using this model system, we treated the DuNE spheroids with increasing doses (0–100 μM) of C1632, Ln15, and Ln268 for 0–6 days. […] In addition, classic colony formation assays were used to measure the stemness in the DuNE model. Colony formation counts, which were ~50 under vehicle treatment after 14 days, decreased by 22% in C1632-treated plates, and by 75% and 96% in the Ln15 and Ln268 treated plates, respectively (Fig. 4D).
# For a spheroid generation, 1000 cells/well were seeded in 96-well ULA round-bottomed plates (Corning, Amsterdam) using a multichannel pipette. 3D multicellular spheroids were spontaneously generated after 24 h culture. Plates were incubated for 6 days at 37 °C, 5% CO2, and 95% humidity. DuNE and Du145 cells were cultured in DMEM with 10% FBS. Fully automated image analysis of tumor spheroids was carried out with the Incucyte® S3 Live-Cell Analysis System. The size and shape of multicellular spheroids were analyzed by using the Incucyte® Spheroid Analysis Software Module.
# ES-2 cells = assay: Cell proliferation (Incucyte), ES-2; type: cell-based; settings: Lin28a/Lin28b-negative
# Description: as §1
# [3] = test system: DuNE(KO) cells (Lin28b gene knocked out by CRISPR); assay: Cell proliferation, DuNE(KO) cells; type: cell-based; settings: Lin28b knockout, 72 h
# Description: as §1
smiles,measurement,setting,value
O=c1[nH]c(Nc2ccc(F)cc2O)cs1 [Ln268],effect on growth of ANA3CA cells,ANA3CA cells,suppressed the growth
same,"cell proliferation, IGROV-1",[1],strongly inhibited cell proliferation; also recorded: strong suppressive effects
same,effect on growth of HEC1B cells,HEC1B cells,no or minimal impacts
same,inhibition of Lin28b ZKD:pre-let-7d complex formation (EMSA),Lin28b ZKD,capable of inhibiting Lin28:pre-let-7d complex formation in a dose-dependent manner
same,effect on Lin28b protein expression,[2],suppressed Lin28b protein expression
same,effect on DuNE spheroid growth,DuNE spheroids,strongest potency among all 13 candidate compounds; also recorded: efficiently blocked DuNE spheroid growth in a time-dependent manner
same,potency improvement over parent compound Ln15 (spheroid growth),DuNE spheroids,~ 2 fold
same,potency relative to C1632 (spheroid growth),DuNE spheroids,approximately 10 fold
same,pIC50,"DuNE spheroids; 0-100 μM, 0-6 days, read-out: concentration to achieve 50% spheroid growth inhibition",5.00
same,effect on growth of ES-2 cells,ES-2 cells,no or minimal impacts
same,effect on cell growth of DuNE(KO) cells,[3],no impact
